Assay results published in patent publication US5486516A, “Furopyrimidine derivatives” (DowElanco, priority 1993, dated 1996).
Like-named read-outs stand apart in the source and are kept apart here.

What was measured:
[1] = test system: Twospotted spider mites (Tetranychus urticae Koch); experiment: Mite/insect screen, twospotted spider mites; assay type: in vivo; settings: Tetranychus urticae, read-out: SM results (percent mortality)
Experimental: (§1) The compounds of Examples were tested for miticidal and insecticidal activity in the following mite/insect screen.
(§2) Each test compound was formulated by dissolving the compound in acetone/alcohol (50:50) mixture containing 23 g of "TOXIMUL R" (sulfonate/nonionic emulsifier blend) and 13 g of "TOXIMUL S" (sulfonate/nonionic emulsifier blend) per liter. These mixtures were then diluted with water to give the indicated concentrations.
(§3) Twospotted spider mites (Tetranychus urticae Koch) and melon aphids (Aphis gossvpii Glover) were introduced on squash cotyledons and allowed to establish on both leaf surfaces. Other plants in the same treatment pot were left uninfested. The leaves were then sprayed with 5 ml of test solution using a DeVilbiss atomizing sprayer at 10 psi. Both surfaces of the leaves were covered until runoff, and then allowed to dry for one hour. Two uninfested leaves were then excised and placed into a Petri dish containing larval southern armyworm (Spodopetra eridania Cramer).
(§4) After standard exposure periods, percent mortality and phytotoxicity were evaluated. […] The following abbreviations are used in Table 3:
SM refers to twospotted spider mites

[2] = test system: melon aphids (Aphis gossvpii Glover); experiment: Mite/insect screen, melon aphids; assay type: in vivo; settings: for mortality at 200 ppm / mortality at 400 ppm: Aphis, read-out: MA results (percent mortality)
Experimental: as §1, §2, §3, §4
MA refers to melon aphids.

[3] = test system: Pyricularia oryzae (rice blast); experiment: whole plant or invertebrate; assay type: in vivo; settings: foliar, read-out: RICE BLAST control rating
[4] = test system: Erysiphe graminis tritici (powdery mildew); experiment: Plant pathology screen (Test 1), powdery mildew on wheat; settings: Blumeria graminis, in Triticum aestivum, foliar, read-out: POWD MDEW control rating
Experimental: (§5) The test compounds were formulated for application by dissolving 50 mg of the compound into 1.25 ml of solvent. The solvent was prepared by mixing 50 ml of "Tween 20" (polyoxyethylene (20) sorbitan monolaurate emulsifier) with 475 ml of acetone and 475 ml of ethanol. The solvent/compound solution was diluted to 125 ml with deionized water. The resulting formulation contains 400 ppm test chemical. Lower concentrations were obtained by serial dilution with the solvent-surfactant mixture.
(§6) The formulated test compounds were applied by foliar spray.
(§7) The formulated technical compounds were sprayed on all foliar surfaces of the host plants (or cut berry) to past run-off. Single pots of each host plant were placed on raised, revolving pedestals in a fume hood. Test solutions were sprayed on all foliar surfaces. All treatments were allowed to dry and the plants were inoculated with the appropriate pathogens within 2-4 hours.
(§8) The effectiveness of test compounds in controlling disease was rated using the following scale.

[5] = test system: southern armyworm (Spodopetra eridania Cramer); experiment: Mite/insect screen, Southern armyworm; assay type: in vivo; settings: for mortality at 200 ppm / mortality at 400 ppm: Spodoptera eridania, read-out: SAW results (percent mortality)
Experimental: as §1, §2, §3, §4
SAW refers to Southern armyworm

[6] = test system: Botrytis cinerea (gray mold); experiment: Plant pathology screen (Test 1), gray mold on grape berries; settings: read-out: GRAY MOLD control rating
[7] = test system: Puccinia recondita tritici (leaf rust); experiment: Plant pathology screen (Test 1), leaf rust on wheat; settings: in Triticum aestivum, foliar, read-out: LEAF RUST control rating
Experimental: This screen was used to evaluate the efficacy of the present compounds against a variety of different organisms that cause plant diseases.
as §5, §6, §7, §8

[8] = test system: Pseudoperonospora cubensis (downy mildew); experiment: Plant pathology screen (Test 1), downy mildew on squash; settings: foliar, read-out: DOWN MDEW control rating
[9] = test system: Southern corn rootworm (Diabrotica undecimpuctata howardi Barber); experiment: Mite/insect screen, corn rootworm; assay type: in vivo; settings: soil; for mortality at 12 ppm / mortality at 24 ppm: Diabrotica, read-out: CRW results (percent mortality)
Experimental: as §1, §2
Activity on Southern corn rootworm (Diabrotica undecimpuctata howardi Barber) was evaluated by adding two ml of tap water, a presoaked corn seed, and 15 g of dry sandy soil to a one ounce plastic container. The soil was treated with 1 mL of test solution containing a predetermined concentration of test compound. After six to 12 hours of drying, five 2-3 instar corn rootworm larvae were added to the individual cups, which were then capped and held at 23° C.
as §4
CRW refers to corn rootworm

| Structure (SMILES) | mortality at 200 ppm ([1]; rate 200 ppm, sprayed leaves) | mortality at 400 ppm ([1]; rate 400 ppm, sprayed leaves) | mortality at 200 ppm ([2]; rate 200 ppm, sprayed leaves) | mortality at 400 ppm ([2]; rate 400 ppm, sprayed leaves) | pest or weed control at 400 µg/mL [3] | pest or weed control at 400 µg/mL [4] | mortality at 200 ppm ([5]; rate 200 ppm, sprayed leaves) | mortality at 400 ppm ([5]; rate 400 ppm, sprayed leaves) | pest or weed control at 400 µg/mL [6] | pest or weed control at 400 µg/mL [7] | pest or weed control at 400 µg/mL [8] | mortality at 12 ppm ([9]; CRW rate 12.00 ppm) | mortality at 24 ppm ([9]; CRW rate 24.00 ppm) | other results |
| --- | --- | --- | --- | --- | --- | --- | --- | --- | --- | --- | --- | --- | --- | --- |
| Cc1oc2ncnc(NCCc3ccccc3)c2c1C [Example 12, 5,6-dimethyl-N-(2-phenylethyl)furo[2,3-d]pyrimidin-4-amine] | 0% | 0% | 0% | 0% | 20 to 89% | 0 to 19% | 0% | 0% | 0 to 19% | 90 to 100% | 90 to 100% | 0% | 0% |  |
| Cc1oc2ncnc(OCCCc3cccnc3)c2c1C [Example 13, 5,6-dimethyl-4-[3-(3-pyridinyl)propoxy]furo[2,3-d]pyrimidine] | 0% | 0% | 0% | 0% | 0 to 19% | 0 to 19% | 0% | 0% | 0 to 19% | 0 to 19% | 0 to 19% | 0% | 100% |  |
| Cc1oc2ncnc(NCCSCc3c(F)cccc3Cl)c2c1C [Example 14, 5,6 dimethyl-N-[2-[[(2-chloro-6-fluorophenyl)methyl]thio]ethyl]furo[2,3-d]pyrimidin-4-amine] | 0% | 0% | 0% | 0% | 0 to 19% | 0 to 19% | 0% | 0% | 0 to 19% | 0 to 19% | 0 to 19% | 0% | 0% |  |
| COc1ccc(CCNc2ncnc3occc23)cc1 [Example 15, N-[2-(4-methyloxyphenyl)ethyl]furo[2,3-d]pyrimidin-4-amine] | 0% | 0% | 0% | 0% | 20 to 89% | 20 to 89% | 0% | 0% | 0 to 19% | 90 to 100% | 90 to 100% | 0% | 0% |  |
| Cc1coc2ncnc(NCCSCc3c(F)cccc3Cl)c12 [Example 16, 5-methyl-N-[2-[[ (2-chloro-6-fluorophenyl)methyl]thio]ethyl]furo[2,3-d]pyrimidin-4-amine] | 0% | 0% | 0% | 0% | 0 to 19% | 0 to 19% | 0% | 0% | 0 to 19% | 0 to 19% | 0 to 19% | 0% | 0% |  |
| Cc1oc2ncnc(OC3CN4CCC3CC4)c2c1C (centres unmarked) [Example 17, 5,6-dimethyl-4-(1-azabicyclo[2.2.2]oct-3-yloxy)furo[2,3-d]pyrimidine] |  |  |  |  | 0 to 19% | 0 to 19% |  |  | 0 to 19% | 0 to 19% | 0 to 19% |  |  | mortality at 200 ppm [1]: 0%; mortality at 400 ppm [1]: 0%; mortality at 200 ppm [2]: 0%; mortality at 400 ppm [2]: 0%; mortality at 200 ppm [5]: 0%; mortality at 400 ppm [5]: 0%; mortality at 12 ppm [9]: 0%; mortality at 24 ppm [9]: 0% |
| Cc1oc2ncnc(NCCC3CCC4CCCCC4C3)c2c1C (centres unmarked) [Example 18, N-[2-(decahydro-2-naphthyl)ethyl]-5,6-dimethylfuro[2,3-d]pyrimidin-4-amine] | 0% | 0% | 0% | 0% | 0 to 19% | 0 to 19% | 0% | 0% | 20 to 89% | 0 to 19% | 0 to 19% | 0% | 0% |  |
| Cc1coc2ncnc(NCCc3ccccc3)c12 [Example 19, 5-methyl-N-(2-phenylethyl)furo[2,3-d]pyrimidin-4-amine] | 0% | 0% | 0% | 90% | 0 to 19% | 20 to 89% | 0% | 0% | 0 to 19% | 90 to 100% | 90 to 100% | 0% | 0% |  |
| Cc1oc2ncnc(NCCc3ccc(C(C)(C)C)cc3)c2c1C [Example 20, N-[2-[4-(t-butyl)phenyl]ethyl]-5,6-dimethylfuro[2,3-d]pyrimidin-4-amine] | 0% |  | 0% | 0% | 20 to 89% | 0 to 19% | 0% | 0% | 0 to 19% | 90 to 100% | 90 to 100% | 0% | 0% | MA results (percent mortality) ([2]; rate 400 ppm, sprayed leaves): 0%; SAW results (percent mortality) ([5]; rate 400 ppm, sprayed leaves): 0%; CRW results (percent mortality) ([9]; CRW rate 24.00 ppm): 0% |
| Cc1coc2ncnc(NCCc3ccc4ccccc4c3)c12 [Example 21, 5-methyl-N-[2-(2-naphthyl)ethyl]furo[2,3-d]pyrimidin-4-amine] | 80% | 60% | 100% | 80% | 0 to 19% | 90 to 100% | 0% | 0% | 0 to 19% | 90 to 100% | 90 to 100% | 100% | 100% |  |
| Cc1oc2ncnc(NCCc3ccc4ccccc4c3)c2c1C [Example 22, 5,6-dimethyl-N-[2-(2-naphthyl)ethyl]furo[2,3-d]pyrimidin-4-amine] | 0% | 0% | 0% | 0% | 0 to 19% | 0 to 19% | 0% | 0% | 0 to 19% | 0 to 19% | 0 to 19% | 0% | 0% |  |
| Cc1oc2ncnc(NCCc3cccc(C(F)(F)F)c3)c2c1C [Example 23, 5,6-dimethyl-N-[2-[3-(trifluoromethyl)phenyl]ethyl]furo[2,3-d]pyrimidin-4-amine] | 0% | 0% | 0% | 0% | 0 to 19% | 0 to 19% | 0% | 0% | 0 to 19% | 20 to 89% | 0 to 19% | 100% | 0% |  |
